Reference: US20130116284A1, “LIPOIC ACID AND NITROXIDE DERIVATIVES AND USES THEREOF” (RADIKAL THERAPEUTICS INC., priority 2010, published 2013)
Values joined by “and” are separate entries in the source; they are usually repeats but may differ in a detail not shown here. Identical values can stand only once.

Experiments:
[1] = tested on: RAW cells; assay: cytoprotection of RAW cells exposed to H2O2 (viability); conditions: 0.1 μM, same model system (not shown)
[2] = tested on: PARP; conditions: read-out: PARP inhibitor IC50; stated for the monofunctional PARP inhibitor, no method given; cited from earlier work
[3] = molecular target: PARP-1 (Homo sapiens, UniProt P09874); assay: in vitro PARP inhibition potency assay, Universal calorimetric PARP-1 Assay Kit (Trevigen); type: biochemical; conditions: 10 point curve, 0.16 nM to 250 nM
Method: In this experiment, the PARP inhibition activity of compound 1 (R-503) was evaluated in in vitro potency assay using Universal calorimetric PARP-1 Assay Kit (Trevigen, Gaithersburg, Md.).

[4] = tested on: CD mice; assay: rodent model of inflammation induced by zymosan (lung MPO, lung histology); type: in vivo; conditions: 60 mg/kg IP at 1 hour after zymosan 500 mg/kg IP; lung at 18 hours; vs. vehicle control
Method: In this study, we tested the potency of compound 1 (R-503) in treatment of an inflammation induced by zymosan, a glucan with repeating glucose units connected by β-1,3-glycosidic linkages.
Male CD mice (20-22 g) were randomly allocated into the following groups (n=10 per experimental arm): (i) zymosan+vehicle group, wherein zymosan (500 mg/kg) was administered via an intraperitoneal (IP) route; (ii) zymosan+compound 1 group, which was identical to the zymosan+vehicle group except for the administration of compound 1 (60 mg/kg IP) at 1 hour after zymosan challenge; and (iii) Sham+vehicle group, which was identical to the zymosan+vehicle group but vehicle was administered in place of zymosan. 18 hours after zymosan admininstration, lung samples were scored for histologic injury by a pathologist blinded to group assignment and neutrophil concentration was determined by measurement of myeloperoxidase (MPO) activity. The following morphological criteria were used for scoring: 0, normal lung; grade 1, minimal edema or infiltration of alveolar or bronchiolar walls; grade 3, moderate edema and inflammatory cell infiltration without obvious damage to lung architecture; grade 4, severe inflammatory cell infiltration with obvious damage to lung architecture. […]

[5] = tested on: Balb/c mice; assay: murine model of chlorine inhalational lung injury (lung MPO, lung histology); type: in vivo; conditions: 30 mg/kg/dose IP q12h from 15 minutes after 400 ppm Cl2 for 30 minutes; lung at 24 hours; relative to placebo (D5W)
Method: In this study, we potency of compound 1 (R-503) in treatment of chlorine inhalational lung injury was tested.
Male Balb/c mice were exposed in a cylindrical glass chamber to 400 ppm Cl2 in air for 30 minutes. 15 minutes after the conclusion of Cl2 exposure, mice were initiated on a q12h regimen of compound 1 (30 mg/kg/dose IP in 0.5 ml dextrose 5% in water, D5W). At 24 hours, mice were euthanized and lung tissue was taken for examination of polymorphonuclear neutrophil (PMN) infiltration (as reflected by MPO) and lung histology (H&E staining). The following morphological criteria were used for scoring: 0, normal lung; grade 1, minimal edema or infiltration of alveolar or bronchiolar walls; grade 3, moderate edema and inflammatory cell infiltration without obvious damage to lung architecture; grade 4, severe inflammatory cell infiltration with obvious damage to lung architecture. As shown in FIGS. 4A-4B, compound 1 therapy reduced the elevation in MPO and histological lung damage by 82% and 73%, respectively, relative to placebo (D5W).

PARP-1, sequence (P09874 whole entry): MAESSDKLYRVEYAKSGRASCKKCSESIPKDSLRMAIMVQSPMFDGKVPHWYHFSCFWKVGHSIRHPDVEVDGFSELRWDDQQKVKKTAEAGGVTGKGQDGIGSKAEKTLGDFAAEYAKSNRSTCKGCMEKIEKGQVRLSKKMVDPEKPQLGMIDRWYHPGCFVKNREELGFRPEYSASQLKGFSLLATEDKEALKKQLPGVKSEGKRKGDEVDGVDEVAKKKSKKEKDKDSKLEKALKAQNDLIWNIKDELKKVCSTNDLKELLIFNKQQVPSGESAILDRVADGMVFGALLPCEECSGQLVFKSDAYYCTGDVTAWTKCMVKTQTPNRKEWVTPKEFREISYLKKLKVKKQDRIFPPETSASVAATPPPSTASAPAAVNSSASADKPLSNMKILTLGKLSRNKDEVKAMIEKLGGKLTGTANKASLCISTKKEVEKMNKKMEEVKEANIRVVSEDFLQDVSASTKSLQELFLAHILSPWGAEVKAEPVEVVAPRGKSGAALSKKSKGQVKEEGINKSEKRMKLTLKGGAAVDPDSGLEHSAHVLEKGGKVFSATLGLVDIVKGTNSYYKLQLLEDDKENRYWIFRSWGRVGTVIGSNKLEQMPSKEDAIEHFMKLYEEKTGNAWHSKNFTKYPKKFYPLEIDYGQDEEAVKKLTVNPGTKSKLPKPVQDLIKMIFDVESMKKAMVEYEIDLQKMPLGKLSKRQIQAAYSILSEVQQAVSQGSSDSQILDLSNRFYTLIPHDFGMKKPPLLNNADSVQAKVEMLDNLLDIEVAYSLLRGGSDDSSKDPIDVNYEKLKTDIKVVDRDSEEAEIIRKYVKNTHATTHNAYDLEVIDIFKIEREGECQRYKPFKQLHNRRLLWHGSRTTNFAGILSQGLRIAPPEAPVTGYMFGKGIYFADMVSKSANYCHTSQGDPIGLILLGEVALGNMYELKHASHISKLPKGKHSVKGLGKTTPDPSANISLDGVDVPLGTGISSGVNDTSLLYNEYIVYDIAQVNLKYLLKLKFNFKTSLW

O=C(O)CCCC[C@@H]1CCSS1 (racemic) [lipoic acid]
cytoprotective effect in RAW cells exposed to H2O2 [1]: no beneficial effect

C[C@]1(c2nc3c(C(N)=O)cccc3[nH]2)CCCN1 [ABT-888]
IC50 [2]: < 0.005 µM

NC(=O)c1cccc2[nH]c(CCCCC3CCSS3)nc12 (stereo not shown) [compound 1, 2-(4-(1,2-dithiolan-3-yl)butyl)-1H-benzo[d]imidazole-4-carboxamide]
IC50 [3]: 0.0262 µM and 0.026 µM
reduction of elevation in lung MPO activity [4]: 65%
reduction of lung histologic injury [4]: 80%
reduction of elevation in lung MPO [5]: 82%
reduction of histological lung damage [5]: 73%
